Like-named read-outs stand apart in the source and are kept apart here.

Experiment [1] deals with A375 cells, a human melanoma cell line having the V600E mutant Braf. Kind of experiment: B-Raf cell-based assay (ratio of phospho-ERK1/2 to total ERK1/2). The note with it: A-375, 1 h, P-ERK/total ERK, 60 minute incubation, read-out: IC50 for the inhibition of B-raf as measured by the cell-based assay. How it is done:
A cell-based assay was optimized to assay the ability of compounds to inhibit Braf activity in a whole cell context. […] The cell-based assay quantifies the ratio of phospho-ERK1/2 to total ERK1/2 and can thereby assay the cellular inhibition of Braf kinase activity.
A375 cells are plated into 96 well plates and grown to confluence. The cells are then changed into starve media (DMEM/0.1% BSA) for 60 minutes. Compounds in DMSO dose curves are then diluted in starve media and added to cells. […] After a 60 minute incubation the cells are fixed for 20 minutes at room temperature in 4% formaldehyde with 0.1%Triton X-100, protease and phosphatase inhibitors in PBS. The cells are washed four times in PBS then blocked for 60 minutes using a one to one mix of Odyssey blocking buffer (Li-Cor Biosciences, Inc) and PBS. Primary antibodies (rabbit anti-phospho p42/p44 MAPK (P-ERK1/2) from Cell Signaling Technology and mouse anti-ERK2 from Santa Cruz Biotechnology) are diluted in blocking buffer, added to the cells and incubated overnight at 4° C. The cells are then washed four times in PBS/0.1% Tween-20. Secondary antibodies (anti-mouse IRDye 800CW from Rockland, Inc and anti-rabbit AlexaFlour680 from Molecular Probes) are diluted in blocking buffer/0.5% Tween and incubated on cells for 60 minutes. After 4 washes in PBS/0.1% Tween-20 the microplate is scanned on an Odyssey Infrared Imager (Li-Cor Bioscience) which can read the signal given by the two secondary antibodies on their respective channels. The ratio of P-ERK/total ERK is determined and IC50s generated using Excel-XLfit software.

The target of the next experiment is recombinant HuBraf V600E (Homo sapiens, UniProt P15056, V600E). Kind of experiment: B-raf Homogenous Time Resolved Fluorescent (HTRF) kinase assay. Conditions: substrate MEK1, 10 uM ATP; threshold lists; read-out: IC50 for the inhibition of B-raf as measured by the HTRF assay. In kind it is biochemical. How it is done:
A Homogeneous Time Resolved Fluorescence (HTRF) kinase assay was established to assay the ability of compounds to inhibit human mutant Braf kinase activity on the substrate MEK1. […] The final concentration of the kinase reaction buffer is 50 mM Tris-HCL pH 7.5, 10 mM MgCl2, 0.5% glucose, 0.5 mM DTT, 0.01% BSA.
The detection reaction proceeds for one hour and is read on a RubyStar (BMG Labtech) counter. IC50s for the test compounds are generated using Excel-XLfit software.
(In general: TR-FRET usually uses a lanthanide donor and a delayed reading to cut background.)

Chain of recombinant HuBraf V600E (P15056 whole entry V600E): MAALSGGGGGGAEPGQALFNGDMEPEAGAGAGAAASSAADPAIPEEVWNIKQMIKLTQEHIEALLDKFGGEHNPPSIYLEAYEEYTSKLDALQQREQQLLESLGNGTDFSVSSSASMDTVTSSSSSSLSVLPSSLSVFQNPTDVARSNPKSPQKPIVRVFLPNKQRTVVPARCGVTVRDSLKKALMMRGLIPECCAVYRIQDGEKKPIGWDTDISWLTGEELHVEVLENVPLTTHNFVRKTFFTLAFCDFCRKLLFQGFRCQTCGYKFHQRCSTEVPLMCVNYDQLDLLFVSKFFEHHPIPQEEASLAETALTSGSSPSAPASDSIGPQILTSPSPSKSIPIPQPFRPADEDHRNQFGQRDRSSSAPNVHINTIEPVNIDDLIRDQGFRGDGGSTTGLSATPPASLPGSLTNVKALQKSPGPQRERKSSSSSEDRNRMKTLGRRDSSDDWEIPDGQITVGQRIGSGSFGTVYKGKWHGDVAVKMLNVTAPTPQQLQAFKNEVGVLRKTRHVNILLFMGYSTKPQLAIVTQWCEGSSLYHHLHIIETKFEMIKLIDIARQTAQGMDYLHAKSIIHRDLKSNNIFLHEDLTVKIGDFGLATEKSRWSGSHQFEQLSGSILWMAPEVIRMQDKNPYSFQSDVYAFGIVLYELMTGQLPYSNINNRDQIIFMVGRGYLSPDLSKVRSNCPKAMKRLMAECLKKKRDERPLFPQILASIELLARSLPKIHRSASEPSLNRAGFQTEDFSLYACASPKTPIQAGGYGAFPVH

With `CNc1ncc2cc(-c3c(C)ccc4c(Nc5cccc(C(C)C)c5)nccc34)ccc2n1` [Example 26, N-methyl-6-(6-methyl-1-((3-(1-methylethyl)phenyl)amino)-5-isoquinolinyl)-2-quinazolinamine], the IC50 in experiment [1] (threshold list) was at most 500 nM; on recombinant HuBraf V600E, at most 250 nM.
As to `CNc1ncc2cc(-c3c(C)ccc4c(Nc5cc(C(C)(C)C)on5)nccc34)ccc2n1` [Example 27, 6-(1-((5-(1,1-dimethylethyl)-3-isoxazolyl)amino)-6-methyl-5-isoquinolinyl)-N-methyl-2-quinazolinamine], the figures for the IC50 (in experiment [1] (threshold list); on recombinant HuBraf V600E) were at most 500 nM and at most 250 nM, respectively.
For `CNc1ncc2cc(-c3c(C)ccc4c(Nc5cccc(C(C)(C)C)c5)nccc34)ccc2n1` [Example 28, 6-(1-((3-(1,1-dimethylethyl)phenyl)amino)-6-methyl-5-isoquinolinyl)-N-methyl-2-quinazolinamine], in that order: at most 500 nM and at most 250 nM.
For `CNc1ncc2cc(-c3c(C)ccc4c(Nc5cccc(Cl)c5)nccc34)ccc2n1` [Example 29, 6-(1-((3-chlorophenyl)amino)-6-methyl-5-isoquinolinyl)-N-methyl-2-quinazolinamine], in that order: at most 500 nM and at most 250 nM.
With `CNc1ncc2cc(-c3c(C)ccc4c(Nc5cccc(C#N)c5)nccc34)ccc2n1` [Example 30, 3-((6-methyl-5-(2-(methylamino)-6-quinazolinyl)-1-isoquinolinyl)amino)benzonitrile], the IC50 is at most 500 nM in experiment [1] (threshold list) and at most 250 nM at recombinant HuBraf V600E.
For `CNc1ncc2cc(-c3c(C)ccc4c(Nc5cccc(OC(F)(F)F)c5)nccc34)ccc2n1` [Example 32, N-methyl-6-(6-methyl-1-((3-((trifluoromethyl)oxy)phenyl)amino)-5-isoquinolinyl)-2-quinazolinamine], in that order: at most 500 nM and at most 250 nM.
With `CNc1ncc2cc(-c3c(C)ccc4c(Nc5ccc6c(c5)N(C(C)=O)CC6(C)C)nccc34)ccc2n1` [Example 33, 6-(1-((1-acetyl-3,3-dimethyl-2,3-dihydro-1H-indol-6-yl)amino)-6-methyl-5-isoquinolinyl)-N-methyl-2-quinazolinamine], the IC50 was at most 500 nM in experiment [1] (threshold list) and at most 250 nM at recombinant HuBraf V600E.
On to `CNc1ncc2cc(-c3c(C)ccc4c(Nc5cc(C(F)(F)F)ccn5)nccc34)ccc2n1` [Example 34, N-methyl-6-(6-methyl-1-((4-(trifluoromethyl)-2-pyridinyl)amino)-5-isoquinolinyl)-2-quinazolinamine], for which the IC50 in experiment [1] (threshold list) is at most 500 nM; at recombinant HuBraf V600E, at most 250 nM.
For `CNc1ncc2cc(-c3c(C)ccc4c(Nc5ccc(OC)c(C(F)(F)F)c5)nccc34)ccc2n1` [Example 35, N-methyl-6-(6-methyl-1-((4-(methyloxy)-3-(trifluoromethyl)phenyl)amino)-5-isoquinolinyl)-2-quinazolinamine], in that order: at most 500 nM and at most 250 nM.
For `CNc1ncc2cc(-c3c(C)ccc4c(Nc5nnc(C6CC6)s5)nccc34)ccc2n1` [Example 36, 6-(1-((5-cyclopropyl-1,3,4-thiadiazol-2-yl)amino)-6-methyl-5-isoquinolinyl)-N-methyl-2-quinazolinamine], in that order: at most 500 nM and at most 250 nM.
Regarding `CNc1ncc2cc(-c3c(C)ccc4c(Nc5ccc6[nH]ncc6c5)nccc34)ccc2n1` [Example 37, 6-(1-(1H-indazol-5-ylamino)-6-methyl-5-isoquinolinyl)-N-methyl-2-quinazolinamine], the IC50 in experiment [1] (threshold list) was at most 500 nM; on recombinant HuBraf V600E, at most 250 nM.
As to `CNc1ncc2cc(-c3c(C)ccc4c(Nc5ccc6c(c5)CCC6)nccc34)ccc2n1` [Example 38, 6-(1-(2,3-dihydro-1H-inden-5-ylamino)-6-methyl-5-isoquinolinyl)-N-methyl-2-quinazolinamine], the values for the IC50 (in experiment [1] (threshold list); on recombinant HuBraf V600E) were at most 500 nM and at most 250 nM, respectively.
In the case of `CNc1ncc2cc(-c3c(C)ccc4c(Nc5ccc6sc(C)nc6c5)nccc34)ccc2n1` [Example 39, N-methyl-6-(6-methyl-1-((2-methyl-1,3-benzothiazol-5-yl)amino)-5-isoquinolinyl)-2-quinazolinamine], the IC50 in experiment [1] (threshold list) was at most 500 nM; at recombinant HuBraf V600E it was at most 250 nM.
For the compound `CNc1ncc2cc(-c3c(C)ccc4c(Nc5ccc(F)c(OC(C)C)c5)nccc34)ccc2n1` [Example 40, 6-(1-((4-fluoro-3-((1-methylethyl)oxy)phenyl)amino)-6-methyl-5-isoquinolinyl)-N-methyl-2-quinazolinamine], the concentration for half-maximal inhibition (IC50) in experiment [1] (threshold list) was at most 500 nM; on recombinant HuBraf V600E, at most 250 nM.
Regarding `CNc1ncc2cc(-c3c(C)ccc4c(Nc5cncc(C(F)(F)F)c5)nccc34)ccc2n1` [Example 41, N-methyl-6-(6-methyl-1-((5-(trifluoromethyl)-3-pyridinyl)amino)-5-isoquinolinyl)-2-quinazolinamine], the values for the IC50 (in experiment [1] (threshold list); at recombinant HuBraf V600E) were at most 500 nM and at most 250 nM, respectively.
For `CNc1ncc2cc(-c3c(C)ccc4c(Nc5cccc(OC(F)(F)F)c5)ncnc34)ccc2n1` [Example 50, N^2,7′-dimethyl-N^4′-(3-((trifluoromethyl)oxy)phenyl)-6,8′-biquinazoline-2,4′-diamine], in that order: at most 500 nM and at most 250 nM.
`CNc1ncc2cc(-c3c(C)ccc4c(Nc5cccc(C(F)(F)F)c5)ncnc34)ccc2n1` [Example 51, N^2,7′-dimethyl-N^4′-(3-(trifluoromethyl)phenyl)-6,8′-biquinazoline-2,4′-diamine]: the IC50 in experiment [1] (threshold list) is at most 500 nM; at recombinant HuBraf V600E, at most 250 nM.
Turning to `CNc1ncc2cc(-c3c(C)ccc4c(Nc5ccc(OC)c(C(F)(F)F)c5)ncnc34)ccc2n1` [Example 52, N^2,7′-dimethyl-N^4′-(4-(methyloxy)-3-(trifluoromethyl)phenyl)-6,8′-biquinazoline-2,4′-diamine], the IC50 in experiment [1] (threshold list) is at most 500 nM; at recombinant HuBraf V600E, at most 250 nM.
For `CNc1ncc2cc(-c3c(C)ccc4c(Nc5cc(C(C)(C)C)nn5C)ncnc34)ccc2n1` [Example 53, N^4′-(3-(1,1-dimethylethyl)-1-methyl-1H-pyrazol-5-yl)-N^2,7′-dimethyl-6,8′-biquinazoline-2,4′-diamine], in that order: at most 500 nM and at most 250 nM.
`CNc1ncc2cc(-c3c(C)ccc4c(Nc5ccc6c(c5)N(C(C)=O)CC6(C)C)ncnc34)ccc2n1` [Example 54, N^4′-(1-acetyl-3,3-dimethyl-2,3-dihydro-1H-indol-6-yl)-N^2,7′-dimethyl-6,8′-biquinazoline-2,4′-diamine]: the IC50 was at most 500 nM in experiment [1] (threshold list) and at most 250 nM at recombinant HuBraf V600E.
For `CNc1ncc2cc(-c3c(C)ccc4c(Nc5ccc(Cl)c(C(F)(F)F)c5)ncnc34)ccc2n1` [Example 55, N^4′-(4-chloro-3-(trifluoromethyl)phenyl)-N^2,7′-dimethyl-6,8′-biquinazoline-2,4′-diamine], in that order: at most 500 nM and at most 250 nM.
For `CNc1ncc2cc(-c3c(C)ccc4c(Nc5cncc(C(F)(F)F)c5)ncnc34)ccc2n1` [Example 56, N^2,7′-dimethyl-N^4′-(5-(trifluoromethyl)-3-pyridinyl)-6,8′-biquinazoline-2,4′-diamine], in that order: at most 500 nM and at most 250 nM.
On to `CNc1ncc2cc(-c3c(C)ccc4c(NC5CCC(C(C)(C)C)CC5)ncnc34)ccc2n1` (stereo not shown) [Example 57, N^4′-(4-(1,1-dimethylethyl)cyclohexyl)-N^2,7′-dimethyl-6,8′-biquinazoline-2,4′-diamine], for which the IC50 is at most 500 nM in experiment [1] (threshold list), at most 1000 nM in experiment [1] (threshold lists) and at most 250 nM at recombinant HuBraf V600E.
`CNc1ncc2cc(-c3c(C)ccc4c(Nc5ccc6sc(C)nc6c5)ncnc34)ccc2n1` [Example 58, N^2,7′-dimethyl-N^4′-(2-methyl-1,3-benzothiazol-5-yl)-6,8′-biquinazoline-2,4′-diamine]: the IC50 in experiment [1] (threshold list) is at most 500 nM; in experiment [1] (threshold lists), at most 1000 nM; on recombinant HuBraf V600E, at most 250 nM.
As to `CNc1ncc2cc(-c3c(C)ccc4c(Nc5cccc(C(F)(F)F)c5)nn(C)c34)ccc2n1` [Example 63, 6-(1,6-dimethyl-3-((3-(trifluoromethyl)phenyl)amino)-1H-indazol-7-yl)-N-methyl-2-quinazolinamine], the IC50 in experiment [1] (threshold list) was at most 500 nM; at recombinant HuBraf V600E it was at most 250 nM.

For orientation: IC50 means the point on the concentration scale where inhibition reaches its midpoint.

Source of the values: US8440674B2, “Substituted pyrimidine compounds as RAF inhibitors and methods of use” (Amgen Inc., priority 2005, dated 2013).
